Publication PMC7664879, “Discovery of 12O—A Novel Oral Multi-Kinase Inhibitor for the Treatment of Solid Tumor” (Molecules, 2020)

Columns and labels:
CDK7/cyclinH/MAT1(h) = target: T1, CDK7/cyclinH/MAT1(h) (Homo sapiens, UniProt P50613); assay: Kinase inhibition assay (Eurofins KinaseProfiler); assay type: biochemical; conditions: ATP at Km
T1 construct: purchased Eurofins (KinaseProfiler service)
Protocol: (§1) Kinase inhibition profiles were determined using KinaseProfiler services provided by Eurofins, and ATP concentrations used are the Km of corresponding kinases.
CDK7/cyclinH/MAT1 (h) was incubated with 8 mM MOPS pH 7.0, 0.2 mM EDTA, 500 uM peptide, 10 mM MgAcetate and [gamma-33P]-ATP (specific activity and concentration as required).
(§2) All the reactions above were initiated by the addition of the Mg/ATP mix. After incubation for 40 min at room temperature, the reaction was stopped by the addition of phosphoric acid to a concentration of 0.5%. An amount of 10 µL of the reaction was then spotted onto a P30 filtermat and washed four times for 4 min in 0.425% phosphoric acid and once in methanol prior to drying and scintillation counting.

PDGFR-beta(h) = target: T2, PDGFR-beta(h) (Homo sapiens, UniProt P09619); assay: Kinase inhibition assay (Eurofins KinaseProfiler); assay type: biochemical; conditions: ATP at Km
T2 construct: purchased Eurofins (KinaseProfiler service)
T2 sequence (P09619 33-1106): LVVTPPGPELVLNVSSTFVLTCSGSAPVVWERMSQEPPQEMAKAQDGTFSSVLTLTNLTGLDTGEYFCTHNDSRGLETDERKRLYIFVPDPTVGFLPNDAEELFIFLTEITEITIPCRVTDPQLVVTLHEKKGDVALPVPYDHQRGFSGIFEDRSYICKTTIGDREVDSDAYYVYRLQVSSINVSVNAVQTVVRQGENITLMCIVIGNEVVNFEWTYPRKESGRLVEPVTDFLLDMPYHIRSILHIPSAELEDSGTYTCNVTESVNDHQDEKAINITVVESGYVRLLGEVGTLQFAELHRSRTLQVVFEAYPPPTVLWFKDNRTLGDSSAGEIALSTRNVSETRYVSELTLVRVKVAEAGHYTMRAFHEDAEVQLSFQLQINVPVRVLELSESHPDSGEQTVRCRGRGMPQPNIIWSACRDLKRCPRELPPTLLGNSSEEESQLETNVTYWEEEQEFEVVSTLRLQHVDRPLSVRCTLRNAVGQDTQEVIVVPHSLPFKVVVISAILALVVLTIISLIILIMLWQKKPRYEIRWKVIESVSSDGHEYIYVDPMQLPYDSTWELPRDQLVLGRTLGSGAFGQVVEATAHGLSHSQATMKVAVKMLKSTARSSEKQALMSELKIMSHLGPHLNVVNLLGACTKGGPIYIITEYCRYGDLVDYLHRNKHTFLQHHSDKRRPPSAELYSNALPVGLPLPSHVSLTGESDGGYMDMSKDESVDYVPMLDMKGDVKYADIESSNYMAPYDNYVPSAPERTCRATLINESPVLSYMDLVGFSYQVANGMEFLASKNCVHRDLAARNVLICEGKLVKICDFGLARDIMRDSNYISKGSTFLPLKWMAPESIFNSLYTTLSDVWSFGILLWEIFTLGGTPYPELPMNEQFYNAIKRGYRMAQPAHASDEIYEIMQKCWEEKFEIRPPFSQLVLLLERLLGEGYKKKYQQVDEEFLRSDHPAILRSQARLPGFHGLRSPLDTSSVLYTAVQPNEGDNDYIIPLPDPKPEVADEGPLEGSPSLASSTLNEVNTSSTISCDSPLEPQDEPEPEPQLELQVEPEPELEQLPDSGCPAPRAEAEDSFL
Protocol: as §1
(§3) PDGFR-alfa(h) [PDGFR-beta(h)] was incubated with 8 mM MOPS pH 7.0, 0.2 mM EDTA, 0.1 mg/mL poly(Glu, Tyr) 4:1, 10 mM MnCl2, 10 mM MgAcetate and [gamma-33P]-ATP.
as §2

PDGFR-alfa(h) = target: T3, PDGFR-alfa(h) (Homo sapiens, UniProt P16234); assay: Kinase inhibition assay (Eurofins KinaseProfiler); assay type: biochemical; conditions: ATP at Km
T3 construct: purchased Eurofins (KinaseProfiler service)
T3 sequence (P16234 24-1089): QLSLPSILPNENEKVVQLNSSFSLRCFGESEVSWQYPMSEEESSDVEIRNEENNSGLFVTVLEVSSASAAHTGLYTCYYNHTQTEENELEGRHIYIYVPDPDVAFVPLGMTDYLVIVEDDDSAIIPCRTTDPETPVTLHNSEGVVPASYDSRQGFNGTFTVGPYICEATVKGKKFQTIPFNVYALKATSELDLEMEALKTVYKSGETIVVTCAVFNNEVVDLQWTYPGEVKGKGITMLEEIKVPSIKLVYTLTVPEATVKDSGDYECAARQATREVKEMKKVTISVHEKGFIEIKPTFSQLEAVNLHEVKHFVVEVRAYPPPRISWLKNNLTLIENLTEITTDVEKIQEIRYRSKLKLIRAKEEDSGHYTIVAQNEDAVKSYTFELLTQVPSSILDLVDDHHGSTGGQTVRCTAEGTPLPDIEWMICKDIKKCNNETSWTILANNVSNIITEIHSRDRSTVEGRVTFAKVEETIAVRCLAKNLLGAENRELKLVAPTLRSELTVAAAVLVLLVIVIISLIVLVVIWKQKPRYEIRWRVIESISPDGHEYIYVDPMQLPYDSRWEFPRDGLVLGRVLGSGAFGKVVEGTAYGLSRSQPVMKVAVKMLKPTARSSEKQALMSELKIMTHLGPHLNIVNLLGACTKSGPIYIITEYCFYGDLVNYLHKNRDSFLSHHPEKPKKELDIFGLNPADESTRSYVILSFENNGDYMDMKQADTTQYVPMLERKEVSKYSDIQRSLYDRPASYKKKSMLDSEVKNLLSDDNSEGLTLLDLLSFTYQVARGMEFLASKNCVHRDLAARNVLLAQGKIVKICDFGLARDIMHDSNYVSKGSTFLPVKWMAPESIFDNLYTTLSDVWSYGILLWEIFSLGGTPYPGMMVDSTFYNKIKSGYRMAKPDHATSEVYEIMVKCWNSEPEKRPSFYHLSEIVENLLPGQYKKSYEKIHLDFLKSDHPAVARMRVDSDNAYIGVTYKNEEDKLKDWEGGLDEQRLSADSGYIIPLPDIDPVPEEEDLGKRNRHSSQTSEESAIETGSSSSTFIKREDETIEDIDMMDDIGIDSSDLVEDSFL
Protocol: as §1, §3, §2

FGFR1(h) = target: T4, FGFR1(h) (Homo sapiens, UniProt P11362); assay: Kinase inhibition assay (Eurofins KinaseProfiler); assay type: biochemical; conditions: ATP at Km
T4 construct: purchased Eurofins (KinaseProfiler service)
T4 sequence (P11362 22-822): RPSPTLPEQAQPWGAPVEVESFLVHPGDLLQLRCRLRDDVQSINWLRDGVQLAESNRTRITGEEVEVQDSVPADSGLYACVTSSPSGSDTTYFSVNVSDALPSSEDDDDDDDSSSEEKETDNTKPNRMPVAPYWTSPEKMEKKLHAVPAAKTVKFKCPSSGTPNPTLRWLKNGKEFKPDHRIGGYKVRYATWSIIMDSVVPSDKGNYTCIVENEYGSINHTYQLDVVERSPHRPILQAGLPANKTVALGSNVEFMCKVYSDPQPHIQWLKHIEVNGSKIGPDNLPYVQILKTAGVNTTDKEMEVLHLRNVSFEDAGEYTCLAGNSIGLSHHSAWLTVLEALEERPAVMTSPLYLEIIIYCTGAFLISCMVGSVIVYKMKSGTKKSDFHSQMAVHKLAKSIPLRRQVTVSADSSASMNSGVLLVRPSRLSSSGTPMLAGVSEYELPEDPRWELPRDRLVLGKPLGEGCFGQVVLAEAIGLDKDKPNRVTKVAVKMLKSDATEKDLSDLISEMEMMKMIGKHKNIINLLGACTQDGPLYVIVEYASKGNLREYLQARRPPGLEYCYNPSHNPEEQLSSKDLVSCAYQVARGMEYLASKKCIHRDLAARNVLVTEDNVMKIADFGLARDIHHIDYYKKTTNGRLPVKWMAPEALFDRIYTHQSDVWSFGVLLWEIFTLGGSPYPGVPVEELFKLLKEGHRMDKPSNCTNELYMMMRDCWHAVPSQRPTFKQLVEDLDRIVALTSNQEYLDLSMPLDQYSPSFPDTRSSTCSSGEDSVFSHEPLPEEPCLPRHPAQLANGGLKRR
Protocol: as §1
FGFR1 (h) was incubated with 8 mM MOPS pH 7.0, 0.2 mM EDTA, 250 uM KKKSPGEYVNIEFG, 10 mM MgAcetate and [gamma-33P]-ATP.
as §2

Src(1-530)(h) = target: T5, Src(1-530)(h) (Homo sapiens, UniProt P12931); assay: Kinase inhibition assay (Eurofins KinaseProfiler); assay type: biochemical; conditions: ATP at Km
T5 construct: Src (1-530) (h) was incubated with; purchased Eurofins (KinaseProfiler service)
Protocol: as §1
Src (1-530) (h) was incubated with 8 mM MOPS pH 7.0, 0.2 mM EDTA, 500 uM GGEEEEYFELVKKKK, 10 mM MgAcetate and [gamma-33P]-ATP.
as §2

SiHa xenograft = SiHa xenograft mouse model, oral dosing; assay type: in vivo; conditions: for Tumor growth inhibition (TGI): SiHa xenograft mice, every day
Protocol: Based on a desirable set of in vitro properties, 12O was finally selected for further in vivo evaluation. We proceeded to test the antitumor efficacy of 12O in SiHa xenograft mice. Animals were orally given three doses (5, 10, and 20 mg Kg^−1) of 12O, one dose (20 mg Kg^−1) of cisplatin (positive control), or vehicle (control) every day. […] Of note, In Figure 5c, an obvious decrease in tumor size was also observed at the end of observation. The average tumor weight (Figure 5d) of the 12O-treated group was less than that of cisplatin. HE staining was further performed to identify the efficacy of 12O (Figure 5e). […] Additional kinase activities of 12O intimately associated with the growth, survival, and metastasis in tumor cells, may contribute to the antitumor activity, but may also cause side effects. Multi-target kinase inhibitor extensively used in clinic cancer therapy, while hampered by associated adverse reactions and side-effect. Thus, further evidence is needed. An in-depth study of compound 12O is ongoing in our laboratory and will be reported in due course.
All animal studies were conducted under the approval of the Experimental Animal Management Committee of Nankai University (No. NKUEC20190228). Six- to eight-week-old female BALB/c nude mice were purchased from Beijing HFK Bioscience Company. Mice were fed in an SPF-level laboratory animal room. The mice were kept in independent ventilation cages with autoclaved corncobs at the bottom of the cage as bedding. The dimensions of the cages were 390 × 180 × 180 mm. Environmental factors: Average air temperature ranged from 20 to 26 °C with average relative air humidity ranging from 40 to 70%. Noise was below 60 decibels. Ventilation times were more than 15 times/hour. Air velocity was 0.1~0.2m/s. The ammonia concentration was below 14/(mg/m³). Working illumination was 150~300LX and animal illumination was 15~20LX. The nutritional components of mouse food include: water content: ≤10%, crude protein: ≥18%, crude fat: ≥4%, crude fiber: ≥5%, minerals: ≥4%, calcium: 1.0–1.8%, Phosphorus: 0.6-1.2%. The water that mice drink is sterilized by the animal drinking system.
Cells SiHa were harvested during the exponential-growth phase, washed 3 times with serum-free medium, followed by resuspension at a concentration of 2 × 10^6 per mL. A total of 100 μL of cell suspension was injected into SCID mice subcutaneously. After the tumors had grown to 100−150 mm^3, all the mice were randomized into 5 groups (5 mice for each group, 25 mice total). The mice were treated daily via oral gavage administration with 12O (5, 10, or 20 mg kg^−1 d^−1), cisplatin (20 mg kg^−1 d^−1), or vehicle. […] Mice were monitored for side effects every day. Body weights and tumor sizes were determined every other day and volume was also observed. At the end-point of the study, all mice had survived. Mice were euthanized and the subcutaneous tumor tissues were stripped and collected. Tumor measurements were calculated using a digital vernier caliper, and the volumes were determined using the following calculation: (short^2) × long × 0.5. Inhibition rate of tumor growth was calculated using the following formula: 100 × {1 − [(tumor volume final-tumor volume initial) for 12O-treated group]/ [(tumor volume final-tumor volume initial) for the vehicle-treated group]} [23].

c-Kit(h) = target: T6, c-Kit(h) (Homo sapiens, UniProt P10721); assay: Kinase inhibition assay (Eurofins KinaseProfiler); assay type: biochemical; conditions: ATP at Km
T6 construct: purchased Eurofins (KinaseProfiler service)
T6 sequence (P10721 26-976): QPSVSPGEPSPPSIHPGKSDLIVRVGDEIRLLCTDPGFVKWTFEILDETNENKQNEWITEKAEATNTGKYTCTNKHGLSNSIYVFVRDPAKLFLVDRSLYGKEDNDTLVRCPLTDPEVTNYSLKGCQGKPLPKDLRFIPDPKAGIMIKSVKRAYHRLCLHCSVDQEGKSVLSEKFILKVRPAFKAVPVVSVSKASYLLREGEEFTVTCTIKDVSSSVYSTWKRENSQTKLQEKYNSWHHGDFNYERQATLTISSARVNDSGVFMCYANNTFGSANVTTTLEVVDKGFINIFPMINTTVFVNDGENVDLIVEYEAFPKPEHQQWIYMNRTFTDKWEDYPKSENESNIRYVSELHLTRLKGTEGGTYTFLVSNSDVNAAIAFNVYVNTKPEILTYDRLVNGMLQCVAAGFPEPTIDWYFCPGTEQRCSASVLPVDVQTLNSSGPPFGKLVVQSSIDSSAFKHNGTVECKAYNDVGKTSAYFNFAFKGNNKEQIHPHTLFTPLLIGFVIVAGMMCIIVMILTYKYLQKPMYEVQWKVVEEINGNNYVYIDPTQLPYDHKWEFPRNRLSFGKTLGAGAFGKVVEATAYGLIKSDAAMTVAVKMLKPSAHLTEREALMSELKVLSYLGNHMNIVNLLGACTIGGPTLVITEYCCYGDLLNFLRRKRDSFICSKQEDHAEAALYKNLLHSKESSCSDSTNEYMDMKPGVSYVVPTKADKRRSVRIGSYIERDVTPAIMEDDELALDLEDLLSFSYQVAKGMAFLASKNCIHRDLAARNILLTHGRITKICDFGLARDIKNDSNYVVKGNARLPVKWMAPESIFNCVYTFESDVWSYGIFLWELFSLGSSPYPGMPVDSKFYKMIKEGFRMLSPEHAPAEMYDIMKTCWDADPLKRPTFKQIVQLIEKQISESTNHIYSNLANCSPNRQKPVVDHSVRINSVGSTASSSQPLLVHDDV
Protocol: as §1
c-Kit (h) was incubated with 8 mM MOPS pH 7.0, 0.2 mM EDTA, 10 mM MnCl2, 0.1 mg/mL poly(Glu, Tyr) 4:1, 10 mM MgAcetate and [gamma-33P]-ATP.
as §2

T1 sequence (P50613 whole entry): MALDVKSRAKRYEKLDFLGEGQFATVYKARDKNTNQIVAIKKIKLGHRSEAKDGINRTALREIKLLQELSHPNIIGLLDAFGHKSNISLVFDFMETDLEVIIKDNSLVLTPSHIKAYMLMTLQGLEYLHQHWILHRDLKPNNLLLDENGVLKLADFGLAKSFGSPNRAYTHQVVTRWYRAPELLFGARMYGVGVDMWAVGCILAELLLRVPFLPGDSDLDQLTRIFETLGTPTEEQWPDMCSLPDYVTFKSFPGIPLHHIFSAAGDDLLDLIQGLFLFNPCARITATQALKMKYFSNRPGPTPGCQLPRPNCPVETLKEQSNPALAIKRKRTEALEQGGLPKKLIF
T1 sequence (P51946 whole entry partner): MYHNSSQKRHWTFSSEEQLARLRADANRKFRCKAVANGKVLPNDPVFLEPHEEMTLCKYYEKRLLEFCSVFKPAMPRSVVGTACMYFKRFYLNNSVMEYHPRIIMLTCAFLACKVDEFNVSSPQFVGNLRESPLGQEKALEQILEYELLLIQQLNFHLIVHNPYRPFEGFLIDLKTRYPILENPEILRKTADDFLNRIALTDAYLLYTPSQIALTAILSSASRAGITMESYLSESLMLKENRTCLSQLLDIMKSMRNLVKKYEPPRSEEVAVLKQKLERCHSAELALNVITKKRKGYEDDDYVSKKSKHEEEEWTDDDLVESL
T1 sequence (P51948 whole entry partner): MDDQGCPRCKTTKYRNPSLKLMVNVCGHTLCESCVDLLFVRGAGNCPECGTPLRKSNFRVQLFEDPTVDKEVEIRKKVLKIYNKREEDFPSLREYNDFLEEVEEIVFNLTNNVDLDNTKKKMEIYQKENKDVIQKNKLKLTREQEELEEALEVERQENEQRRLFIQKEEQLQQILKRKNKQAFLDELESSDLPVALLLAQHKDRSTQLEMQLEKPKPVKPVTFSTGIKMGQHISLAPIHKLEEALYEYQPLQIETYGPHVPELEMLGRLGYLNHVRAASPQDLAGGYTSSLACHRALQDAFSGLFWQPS

## CC(C)n1nnc2ccc(-c3nc(Nc4ccc(CNC(=O)C5(C(=O)Nc6ccccc6)CC5)cc4)ncc3F)cc21 [12O]
CDK7/cyclinH/MAT1(h)
  inhibition at 1 µM: 53%
PDGFR-beta(h)
  inhibition at 1 µM: 12%
PDGFR-alfa(h)
  inhibition at 1 µM: -1%
FGFR1(h)
  inhibition at 1 µM: -23%
Src(1-530)(h)
  inhibition at 1 µM: 46%
SiHa xenograft; 5 mg/kg oral
  Tumor growth inhibition (TGI): 51.25%
SiHa xenograft; 10 mg/kg oral
  Tumor growth inhibition (TGI): 65.52%
SiHa xenograft; 20 mg/kg oral
  Tumor growth inhibition (TGI): 79.29%
SiHa xenograft; SiHa xenograft mice, 5, 10 and 20 mg/kg oral daily
  toxicity in treated mice (body weight): without obvious toxicity
c-Kit(h)
  inhibition at 1 µM: 15%
